This note sets out measurements from patent publication US8426420B2, “Heterocyclic pyrazole-carboxamidesas P2Y12 antagonists” (Sanofi, priority 2007, dated 2013).

The test system of assay [1] is human platelet rich plasma. Put plainly: Inhibition of human platelet aggregation, 96-well assay. Format: cell-based. The settings on record: Homo sapiens, Platelet, 20 min. Summed up: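 ADP-induced aggregation read as 650 nm absorbance every minute for 20 min at 37 °C, with shaking between reads. PRP (~3×E8 platelets/ml, diluted with PPP, ACD-A blood from healthy volunteers) was exposed to compound for 5 min before adding a 40 μM ADP stock (15 μl into 150 μl).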

The test system of assay [2] is human platelet rich plasma. The experiment in a line: Inhibition of human platelet aggregation, "Born"-method using single cuvettes. It counts as cell-based. The settings on record: 0.1 h, ADP-induced aggregation, 6 minutes. The method, then: Inhibition of Human Platelet Aggregation
Alternatively to a binding assay which measures a compound's ability to bind to the P2Y12 receptor, the effect on cellular function was also determined. This ability of the compound was evaluated in two platelet aggregation assays: in 96-well plates and with the “Born”-method using single cuvettes.
Whole blood was collected from healthy volunteers using 20 ml syringes containing 2 ml of buffered Citrate. The anticoagulated whole blood was transferred into 15 ml polypropylene conical tubes (10 ml per tube). The tubes were centrifuged for 15 minutes at 340×g at RT without using the centrifuge brake. This procedure leads to a pellet of cellular components and a supernatant of platelet rich plasma (PRP). The PRP layer was collected from each tube and pooled for each donor. To avoid carry over of cellular components following centrifugation, approximately 5 ml of PRP was left in the tube. The platelet concentration was determined using a Coulter Counter.
The 15 ml tubes containing the pellet of cellular components were centrifuged again for 10 minutes at 1940×g. This pelleted out most particulate blood constituents remaining, leaving a layer of Platelet Poor Plasma (PPP). The PPP was collected for each donor. The PRP layer, previously set aside, was diluted with PPP to a final concentration of approximately 3×E8 platelets/ml with the PPP.
The human platelet aggregation assay is performed in single use cuvettes using the platelet aggregation profiler (PAP-4 or -8, Bio/Data corporation).
In the assay cuvette 4 μl of test compound at 100× final concentration in DMSO is mixed with 392 μl fresh PRP and incubated for 2 minutes at 37° C. with 1.200 rpm stirring. Following that incubation period, 4 μl of 250 μM ADP is added to the reaction mix. This addition of ADP is sufficient to induce aggregation in the absence of an inhibitor. After that aggregation is measured over 6 minutes at 37° C. with 1.200 rpm stirring. Results of the assay are expressed as % inhibition, and are calculated using maximum aggregation (Tmax) or area under curve (AUC) of the absorbance over 6 minutes.
The IC50 data of the above described platelet aggregation assay using human platelet rich plasma for exemplary compounds of the present invention are shown in table 3.

The target in assay [3] is human P2Y12 receptor (Homo sapiens, UniProt Q9H244). The experiment in a line: Human P2Y12 recombinant cell membrane binding assay with 33P 2MeS-ADP. The settings on record: competition against 33P 2MeS-ADP, membranes of CHO cells with recombinant human P2Y12 receptor. Summed up:
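Competition binding against radiolabeled 2MeS-ADP (1.61 nM as added) on membranes from recombinant human P2Y12 CHO cells, 20 min RT after 15 min compound preincubation, pH 7.4. Filtration then scintillation counting; compounds tested in triplicate from 10 μM final, five-fold dilutions, curve fit with plate-defined min/max.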

Sequence of human P2Y12 receptor (Q9H244 whole entry): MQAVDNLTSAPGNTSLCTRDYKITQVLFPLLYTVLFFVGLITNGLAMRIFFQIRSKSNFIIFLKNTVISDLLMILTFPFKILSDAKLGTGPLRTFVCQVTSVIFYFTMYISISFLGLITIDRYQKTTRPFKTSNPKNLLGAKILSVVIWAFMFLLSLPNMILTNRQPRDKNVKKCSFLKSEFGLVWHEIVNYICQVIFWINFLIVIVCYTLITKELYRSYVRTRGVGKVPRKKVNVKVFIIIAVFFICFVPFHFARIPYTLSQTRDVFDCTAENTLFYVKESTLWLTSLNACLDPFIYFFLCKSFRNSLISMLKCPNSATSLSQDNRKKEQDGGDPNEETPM

Take `CCOC(=O)N1CCN(C(=O)[C@H](CCC(=O)O)NC(=O)c2cc(OCC(=O)N3CCC[C@H]3C(=O)NC3CCCC3)n(-c3ccccc3)n2)CC1` [Example 13, 4-{(S)-4-Carboxy-2-[(5-{2-[(S)-2-cyclopentylcarbamoyl-pyrrolidin-1-yl]-2-oxo-ethoxy}-1-phenyl-1H-pyrazole-3-carbonyl)-amino]-butyryl}-piperazine-1-carboxylic acid ethyl ester]: the IC50 in assay [1] came out at 10 nM; in assay [2], 38 nM.

For the compound `CCOC(=O)N1CCN(C(=O)CNC(=O)c2cc(OCC(=O)N3CCC[C@H]3C(=O)NC3CCC3)n(-c3ccccc3)n2)CC1` [Example 181, 4-[2-({5-[2-((S)-2-Cyclobutylcarbamoyl-pyrrolidin-1-yl)-2-oxo-ethoxy]-1-phenyl-1H-pyrazole-3-carbonyl}-amino)-acetyl]-piperazine-1-carboxylic acid ethyl ester], the IC50 in assay [1] turned out to be 90 nM; in assay [2], 100 nM.

Regarding `CCOC(=O)N1CCN(C(=O)[C@H](CCC(=O)O)NC(=O)c2cc(OCC(=O)N3CCC[C@H]3C(=O)NCC3CC3)n(-c3ccccc3)n2)CC1` [Example 16, 4-{(S)-4-Carboxy-2-[(5-{2-[(S)-2-(cyclopropylmethyl-carbamoyl)-pyrrolidin-1-yl]-2-oxo-ethoxy}-1-phenyl-1H-pyrazole-3-carbonyl)-amino]-butyryl}-piperazine-1-carboxylic acid ethyl ester], in assay [2], half-maximal inhibition (IC50) was put at 46 nM.

Take `CCCCOC(=O)N1CCN(C(=O)[C@H](CCC(=O)O)NC(=O)c2cc(OCC(=O)N3CCC[C@H]3C(=O)NC3CCC3)n(-c3ccccc3)n2)CC1` [Example 119, 4-[(S)-4-Carboxy-2-({5-[2-((S)-2-cyclobutylcarbamoyl-pyrrolidin-1-yl)-2-oxo-ethoxy]-1-phenyl-1H-pyrazole-3-carbonyl}-amino)-butyryl]-piperazine-1-carboxylic acid butyl ester]: the IC50 in assay [1] was found to be 20 nM; in assay [2], 13 nM.

Take `CCOC(=O)N1CCN(C(=O)[C@H](CC(O)CO)NC(=O)c2cc(OCC(=O)N3CCC[C@H]3C(=O)NC3CCC3)n(-c3ccccc3)n2)CC1` (stereo partly drawn) [Example 117, 4-[(S)-2-({5-[2-((S)-2-Cyclobutylcarbamoyl-pyrrolidin-1-yl)-2-oxo-ethoxy]-1-phenyl-1H-pyrazole-3-carbonyl}-amino)-4,5-dihydroxy-pentanoyl]-piperazine-1-carboxylic acid ethyl ester]: in assay [2], the IC50 amounted to 220 nM.

`CCOC(=O)N1CCN(C(=O)[C@H](CCC(=O)O)NC(=O)c2cc(OCC(=O)N3CCC[C@H]3c3cc(C)no3)n(-c3ccccc3)n2)CC1` [Example 173, 4-{(S)-4-Carboxy-2-[(5-{2-[(S)-2-(3-methyl-isoxazol-5-yl)-pyrrolidin-1-yl]-2-oxo-ethoxy}-1-phenyl-1H-pyrazole-3-carbonyl)-amino]-butyryl}-piperazine-1-carboxylic acid ethyl ester]: the values for the IC50 in assay [1] and in assay [2] were 860 nM and 940 nM, respectively.

As to `CCOC(=O)N1CCN(C(=O)[C@H](CCC(=O)O)NC(=O)c2cc(OCC(=O)N3CCC[C@H]3c3nc(C)no3)n(-c3ccccc3)n2)CC1` [Example 174, 4-{(S)-4-Carboxy-2-[(5-{2-[(S)-2-(3-methyl-[1,2,4]oxadiazol-5-yl)-pyrrolidin-1-yl]-2-oxo-ethoxy}-1-phenyl-1H-pyrazole-3-carbonyl)-amino]-butyryl}-piperazine-1-carboxylic acid ethyl ester], the IC50 was 760 nM in assay [1] and 2220 nM in assay [2].

As for `CCCCOC(=O)N1CCN(C(=O)[C@H](CCc2nn[nH]n2)NC(=O)c2cc(OCC(=O)N3CCC[C@H]3C(=O)NC3CCC3)n(-c3ccccc3)n2)CC1` [Example 126, 4-[(S)-2-({5-[2-((S)-2-Cyclobutylcarbamoyl-pyrrolidin-1-yl)-2-oxo-ethoxy]-1-phenyl-1H-pyrazole-3-carbonyl}-amino)-4-(2H-tetrazol-5-yl)-butyryl]-piperazine-1-carboxylic acid butyl ester], the IC50 in assay [1] worked out at 50 nM; in assay [2], 79 nM.

`CCOC(=O)N1CCN(C(=O)[C@H](C)NC(=O)c2cc(OCC(=O)N3CCC[C@H]3C(=O)NC3CCC3)n(-c3ccccc3)n2)CC1` [Example 185, 4-[(S)-2-({5-[2-((S)-2-Cyclobutylcarbamoyl-pyrrolidin-1-yl)-2-oxo-ethoxy]-1-phenyl-1H-pyrazole-3-carbonyl}-amino)-propionyl]-piperazine-1-carboxylic acid ethyl ester] returned an IC50 in assay [2] of 90 nM.

For the compound `CCOC(=O)N1CCN(C(=O)[C@H](CCC(=O)O)NC(=O)c2cc(O[C@@H](C)C(=O)N3CCC[C@H]3C(=O)NC3CCC3)n(-c3ccccc3)n2)CC1` [Example 67, 4-[(S)-4-Carboxy-2-({5-[(S)-2-((S)-2-cyclobutylcarbamoyl-pyrrolidin-1-yl)-1-methyl-2-oxo-ethoxy]-1-phenyl-1H-pyrazole-3-carbonyl}-amino)-butyryl]-piperazine-1-carboxylic acid ethyl ester], the IC50 in assay [1] was found to be 110 nM; in assay [2], 950 nM.

With `O=C(NCC(=O)N1CCN(C(=O)OCCC(F)(F)F)CC1)c1cc(OCC(=O)N2CCC[C@H]2C(=O)NC2CCC2)n(-c2ccccc2)n1` [Example 256, 4-[2-({5-[2-((S)-2-Cyclobutylcarbamoyl-pyrrolidin-1-yl)-2-oxo-ethoxy]-1-phenyl-1H-pyrazole-3-carbonyl}-amino)-acetyl]-piperazine-1-carboxylic acid 3,3,3-trifluoro-propyl ester], the IC50 was determined as 130 nM in assay [1] and 190 nM in assay [2].

With `CCCCOC(=O)N1CCN(C(=O)[C@H](CF)NC(=O)c2cc(OCC(=O)N3CCC[C@H]3C(=O)NC3CCC3)n(-c3ccccc3)n2)CC1` [Example 262, 4-[(R)-2-({5-[2-((S)-2-Cyclobutylcarbamoyl-pyrrolidin-1-yl)-2-oxo-ethoxy]-1-phenyl-1H-pyrazole-3-carbonyl}-amino)-3-fluoro-propionyl]-piperazine-1-carboxylic acid butyl ester], the IC50 in assay [1] came out at 30 nM; in assay [2] it was 40 nM.

In the case of `CCCCNC(=O)[C@@H]1CCCN1C(=O)COc1cc(C(=O)N[C@@H](CCC(=O)O)C(=O)N2CCN(C(=O)OCC)CC2)nn1-c1ccccc1` [Example 11, 4-{(S)-4-Carboxy-2-[(5-{2-[(S)-2-butylcarbamoyl-pyrrolidin-1-yl]-2-oxo-ethoxy}-1-phenyl-1H-pyrazole-3-carbonyl)-amino]-butyryl}-piperazine-1-carboxylic acid ethyl ester], the IC50 in assay [1] came to 30 nM; in assay [2], 120 nM.

Consider `CCOC(=O)N1CCN(C(=O)[C@H](CCC(=O)O)NC(=O)c2cc(OCC(=O)N3CCC[C@H]3C(=O)NC3CC3(F)F)n(-c3ccccc3)n2)CC1` (stereo partly drawn) [Example 21, 4-{(S)-4-Carboxy-2-[(5-{2-[(S)-2-(2,2-difluoro-cyclopropylcarbamoyl)-pyrrolidin-1-yl]-2-oxo-ethoxy}-1-phenyl-1H-pyrazole-3-carbonyl)-amino]-butyryl}-piperazine-1-carboxylic acid ethyl ester], for which the results for the IC50 in assay [3] and in assay [1] were 32 nM and 62 nM, respectively.

In the case of `CCOC(=O)N1CCN(C(=O)[C@H](CCC(=O)OCC2CC2)NC(=O)c2cc(OCC(=O)N3CCC[C@H]3C(=O)NC3CCC3)n(-c3ccccc3)n2)CC1` [Example 128, 4-[(S)-2-({5-[2-((S)-2-Cyclobutylcarbamoyl-pyrrolidin-1-yl)-2-oxo-ethoxy]-1-phenyl-1H-pyrazole-3-carbonyl}-amino)-4-cyclopropylmethoxycarbonyl-butyryl]-piperazine-1-carboxylic acid ethyl ester], the IC50 in assay [3] turned out to be 43 nM; in assay [1], 690 nM.

Consider `CCOC(=O)N1CCN(C(=O)[C@H](CCC(=O)OCC2CCCC2)NC(=O)c2cc(OCC(=O)N3CCC[C@H]3C(=O)NC3CCC3)n(-c3ccccc3)n2)CC1` [Example 138, 4-[(S)-2-({5-[2-((S)-2-Cyclobutylcarbamoyl-pyrrolidin-1-yl)-2-oxo-ethoxy]-1-phenyl-1H-pyrazole-3-carbonyl}-amino)-4-cyclopentylmethoxycarbonyl-butyryl]-piperazine-1-carboxylic acid ethyl ester], for which the IC50 was found to be 83 nM in assay [3] and 1650 nM in assay [1].
